Results as given in US20140349922A1 (priority 2011, published 2014).

What was measured:
[1] = DIO mice, fasting glucose and fasting insulin after single dose, experiment #1 (Example 7); type: in vivo; settings: experiment #1, day 2
Protocol: (§1) On the morning of day 1 the mice were dosed followed by an overnight fasting. On days 2, 24 h following administration (groups A-E) or prior to the morning dosing (groups F-H), the mice were sampled for fasting glucose and fasting insulin.
In this set of experiments two independent in vivo studies were carried out. The first experiment included 8 groups (n=8) of DIO mice that were dosed for 2 days as follows: […]

[2] = DIO mice, fasting glucose and fasting insulin after single dose, experiment #2 (Example 7); type: in vivo; settings: experiment #2, day 2; PEG-OXM single SC 6000 nmol/kg; Liraglutide 200 μg/kg bid
Protocol: as §1
The second experiment included 7 groups (n=7) of DIO mice that were dosed for 2 days as follows: […]

[3] = Diet-induced obesity mice model, Study 1: body weight and food intake; type: in vivo, C57BL/6J mice; settings: SC, 7 days dosing, OXM 5000 nmol/kg b.i.d; for Body weight loss on Day 8 compared to control group: PEG40-FMS-OXM 5000 nmol/kg Days 1, 3, 5, 7, Sibutramine 20 mg/kg b.i.d
Protocol: Data are adjusted means (n=10). SEMs are calculated from the residuals of the statistical model. Mice were dosed for 7 days started on Day 1. […] Significant differences vs. appropriate vehicle: *p<0.05, **p<0.01, ***p<0.001. Percentage values indicate difference from appropriate vehicle group on Day 8 (i.e. after 7 days dosing).
Measurements of body weight and food intake were performed daily until Day 8. The final measurement of body weight was carried out on Day 12.
Body weight and food intake are expressed as mean values±SEM.

[4] = IP glucose tolerance test (IPGTT); type: in vivo, C57BL/6 mice; settings: OXM and PEG40-EMCS-OXM 333 nmol/kg 15 min before glucose, PEG40-Fmoc-OXM […] peptide content 2 hrs before, vs vehicle
Protocol: Blood glucose levels were measured by tail vein sampling prior to glucose administration and 10, 20, 30, 60 and 120 min after glucose administration using a handheld glucometer.
Blood glucose levels were measured by tail vein sampling prior to glucose administration and 10, 20, 30, 60 and 120 min after to glucose administration using a handheld glucometer.

[5] = DIO mouse model, 29 days dosing (Example 6): body weight; type: in vivo, C57BL/6J mice; settings: SC 6,000 nmol/kg; PEG conjugates weekly, native OXM twice per day
[6] = molecular target: CHO-K1 cells over-expressing GLP-1 receptor (Homo sapiens, UniProt P43220); settings: rat serum 1%
Protocol: Cells cAMP concentrations were quantified by HTRF assay (Cisbio 62AM4PEB) and EC50 parameter was analyzed by PRISM software.
Cells' cAMP concentrations were quantified by HTRF assay (Cisbio 62AM4PEB), and the EC50 parameter was analyzed by PRISM software.

[7] = single SC 6,000 nmol/kg (OXM b.i.d)

CHO-K1 cells over-expressing GLP-1 receptor, sequence (P43220 24-463): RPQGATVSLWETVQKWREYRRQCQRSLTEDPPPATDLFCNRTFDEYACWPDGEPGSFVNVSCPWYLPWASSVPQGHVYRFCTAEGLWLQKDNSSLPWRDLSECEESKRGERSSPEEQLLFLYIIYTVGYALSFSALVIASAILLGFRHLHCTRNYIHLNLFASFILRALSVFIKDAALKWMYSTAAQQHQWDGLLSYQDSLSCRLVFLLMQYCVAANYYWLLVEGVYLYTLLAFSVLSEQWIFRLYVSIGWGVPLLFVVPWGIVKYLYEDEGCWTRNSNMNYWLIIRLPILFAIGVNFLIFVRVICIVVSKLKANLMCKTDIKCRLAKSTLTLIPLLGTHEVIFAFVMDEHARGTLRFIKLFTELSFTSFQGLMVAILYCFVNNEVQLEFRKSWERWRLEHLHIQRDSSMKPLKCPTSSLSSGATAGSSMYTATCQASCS

Row | Compound | Fasting glucose level ([1]; PEG-OXM single SC 6,000 nmol/kg on day 1, Liraglutide 200 μg/kg b.i.d) [mM] | Fasted plasma insulin level ([1]; PEG-OXM single SC 6,000 nmol/kg, Liraglutide 200 μg/kg b.i.d) [ng/mL] | Fasted plasma insulin level [2] [ng/mL] | Fasting glucose level [2] [mM] | Body weight loss on Day 8 compared to control group [3] [%] | Induction of glucose tolerance (blood glucose after IP glucose 1.5 gr/kg) [4] | Inhibition of food intake ([3]; PEG40-FMS-OXM 5000 nmol/kg every other day) | Weight loss during a 30-day period [5] [%] | Fasting glucose compared to vehicle [1, 7] | Fasting plasma insulin compared to controls [1, 7] | cAMP activity after incubation in rat serum versus without serum [6]
1 | CCCCCCCCCCCCCCCC(=O)N[C@@H](CCC(=O)NCCCC[C@H](NC(=O)[C@H](C)NC(=O)[C@H](C)NC(=O)[C@H](CCC(N)=O)NC(=O)CNC(=O)[C@H](CCC(=O)O)NC(=O)[C@H](CC(C)C)NC(=O)[C@H](Cc1ccc(O)cc1)NC(=O)[C@H](CO)NC(=O)[C@H](CO)NC(=O)[C@@H](NC(=O)[C@H](CC(=O)O)NC(=O)[C@H](CO)NC(=O)[C@@H](NC(=O)[C@H](Cc1ccccc1)NC(=O)[C@@H](NC(=O)CNC(=O)[C@H](CCC(=O)O)NC(=O)[C@H](C)NC(=O)[C@@H](N)Cc1cnc[nH]1)[C@@H](C)O)[C@@H](C)O)C(C)C)C(=O)N[C@@H](CCC(=O)O)C(=O)N[C@@H](Cc1ccccc1)C(=O)N[C@H](C(=O)N[C@@H](C)C(=O)N[C@@H](Cc1c[nH]c2ccccc12)C(=O)N[C@@H](CC(C)C)C(=O)N[C@H](C(=O)N[C@@H](CCCNC(=N)N)C(=O)NCC(=O)N[C@@H](CCCNC(=N)N)C(=O)NCC(=O)O)C(C)C)[C@@H](C)CC)C(=O)O [Liraglutide] | 6.06 | 4.4 | 3 | 6.7 | – | – | – | – | – | – | –
2 | CC(C)CC(N(C)C)C1(c2ccc(Cl)cc2)CCC1 (stereo not drawn) [Sibutramine] | – | – | – | – | 15.6 | – | – | – | – | – | –
3 | Oxyntomodulin [OXM] | – | – | – | – | 6 | minor effect on the glucose tolerance | statistically significant inhibition of food intake | 17 | did not show any significant difference | did not show any significant difference | reduced activity
